Data as given in ChEMBL document CHEMBL1201862, “PubChem BioAssay data set” (2004).
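Protocol summary: plate cells (96-well), add compound at 5 concentrations, incubate 48 h, interpolate endpoints linearly. The concentration for 50% growth inhibition is given as GI50.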 Activity calls are given as the source filed them. Cut-off read from the data, not from the text of the source: active = GI50 up to about 1.1 µM and inactive = higher.

How the values were obtained:
Experiment in all cases: NCI tumour cell line growth inhibition, 48 h
CCRF-CEM = system: CCRF-CEM
HCT-15 = system: HCT-15
SN12C = system: SN12C
A549 = system: A549
NCI-H23 = system: NCI-H23
HT-29 = system: HT-29
TK-10 = system: TK-10
SNB-19 = system: SNB-19
UACC-257 = system: UACC-257
PC-3 = system: PC-3
SK-MEL-2 = system: SK-MEL-2
NCI-H226 = system: NCI-H226
MDA-N = system: MDA-N
LOX IMVI = system: LOX IMVI
HCC 2998 = system: HCC 2998
SW-620 = system: SW-620
OVCAR-5 = system: OVCAR-5
OVCAR-3 = system: OVCAR-3
T47D = system: T47D
DU-145 = system: DU-145
UACC-62 = system: UACC-62
MDA-MB-435 = system: MDA-MB-435
OVCAR-8 = system: OVCAR-8
SK-MEL-28 = system: SK-MEL-28
CAKI-1 = system: CAKI-1
HCT-116 = system: HCT-116
NCI/ADR-RES = system: NCI/ADR-RES
HOP-92 = system: HOP-92
RPMI-8226 = system: RPMI-8226
KM12 = system: KM12
M14 = system: M14
RXF 393 = system: RXF 393
OVCAR-4 = system: OVCAR-4
SK-OV-3 = system: SK-OV-3
COLO 205 = system: COLO 205
MDA-MB-231 = system: MDA-MB-231
BT-549 = system: BT-549
SNB-75 = system: SNB-75
786-0 = system: 786-0
Hs-578T = system: Hs-578T
K562 = system: K562
IGROV-1 = system: IGROV-1
SF-268 = system: SF-268
NCI-H460 = system: NCI-H460
SK-MEL-5 = system: SK-MEL-5
U-251 = system: U-251
HOP-62 = system: HOP-62
SF-295 = system: SF-295
Malme-3M = system: Malme-3M
UO-31 = system: UO-31
ACHN = system: ACHN
A498 = system: A498
MOLT-4 = system: MOLT-4
MCF7 = system: MCF7
SF-539 = system: SF-539
EKVX = system: EKVX
HL-60 = system: HL-60
NCI-H522 = system: NCI-H522
SR = system: SR

Measured: GI50

O=C(Cn1c2ccc(Br)cc2c2nc3ccccc3nc21)N1CCOCC1
> 100 µM: HCT-15
inactive: CCRF-CEM > 100 µM | SN12C > 100 µM | A549 98.4 µM | NCI-H23 53 µM | HT-29 > 100 µM | TK-10 > 100 µM | SNB-19 > 100 µM | UACC-257 > 100 µM | PC-3 95.7 µM | SK-MEL-2 > 100 µM | NCI-H226 > 100 µM | MDA-N > 100 µM | LOX IMVI 39.8 µM | HCC 2998 > 100 µM | SW-620 > 100 µM | OVCAR-5 > 100 µM | OVCAR-3 > 100 µM | T47D 25.5 µM | DU-145 > 100 µM | UACC-62 > 100 µM | MDA-MB-435 > 100 µM | OVCAR-8 44.3 µM | SK-MEL-28 > 100 µM | CAKI-1 > 100 µM | HCT-116 50.2 µM | NCI/ADR-RES 47.9 µM | HOP-92 12.8 µM | RPMI-8226 > 100 µM | KM12 > 100 µM | M14 > 100 µM | RXF 393 21.3 µM | OVCAR-4 > 100 µM | SK-OV-3 > 100 µM | COLO 205 > 100 µM | MDA-MB-231 63.5 µM | BT-549 > 100 µM | SNB-75 22.1 µM | 786-0 > 100 µM | Hs-578T 49.1 µM | K562 > 100 µM | IGROV-1 49.7 µM | SF-268 > 100 µM | NCI-H460 > 100 µM | SK-MEL-5 > 100 µM | U-251 > 100 µM | HOP-62 > 100 µM | SF-295 > 100 µM | Malme-3M > 100 µM | UO-31 > 100 µM | ACHN > 100 µM | A498 > 100 µM | MOLT-4 > 100 µM

COc1cccc(-c2ccc3c4c2O[C@H]2c5[nH]c6ccccc6c5C[C@@]5(O)[C@@H](C3)N(CC3CC3)CC[C@]425)c1
inactive: CCRF-CEM 3.29 µM | SN12C 1.67 µM | MCF7 1.69 µM | A549 1.77 µM | NCI-H23 2.21 µM | HT-29 1.7 µM | TK-10 1.72 µM | SNB-19 2.05 µM | UACC-257 1.74 µM | SK-MEL-2 1.69 µM | NCI-H226 6.84 µM | MDA-N 1.85 µM | LOX IMVI 1.72 µM | HCC 2998 1.53 µM | SF-539 1.78 µM | SW-620 1.93 µM | OVCAR-5 7.08 µM | OVCAR-3 1.9 µM | T47D 2.1 µM | DU-145 2.54 µM | UACC-62 1.67 µM | MDA-MB-435 1.77 µM | OVCAR-8 1.65 µM | CAKI-1 2.1 µM | HCT-116 1.63 µM | NCI/ADR-RES 2.07 µM | HOP-92 1.37 µM | RPMI-8226 2.18 µM | KM12 1.85 µM | M14 1.81 µM | RXF 393 1.66 µM | EKVX 3.86 µM | OVCAR-4 1.71 µM | COLO 205 1.81 µM | BT-549 4.83 µM | 786-0 1.7 µM | Hs-578T 1.49 µM | HL-60 1.38 µM | K562 1.9 µM | IGROV-1 1.64 µM | SF-268 1.61 µM | NCI-H460 1.79 µM | NCI-H522 1.15 µM | SK-MEL-5 1.94 µM | U-251 1.77 µM | HOP-62 1.74 µM | SF-295 1.71 µM | Malme-3M 1.5 µM | UO-31 1.72 µM | ACHN 1.63 µM | A498 2.19 µM | SR 1.76 µM
active: MDA-MB-231 0.14 µM | MOLT-4 0.82 µM
1.84 µM: HCT-15
